Experiments:
Assay type in all cases: in vivo, rat
SD rats [1] = experiment: Social interaction test (sniffing behavior against unfamiliar partner); conditions: postnatal day 52; for effect on reduced sniffing behavior in the EGF administrated group: pretreated for three weeks, test 48 hours after the final injection
Text: Social interaction test is a test that makes an index of the schizophrenic patient's trait that they dislike to make contact with other individuals and keeps away from society, can be made to an index. In general, the sniffling behavior of the animals, usually observed when an animal meets to an unknown individual, is observed. In general, in schizophrenic patients and in schizophrenic model animals, decrease of this behavior has been reported.
Moreover, the abnormality in social interaction of the EGF administrated rats was investigated according to the method of File et al. Using two rats of postnatal day 52, sniffling behavior between two rats was observed and the time of sniffling behavior was used as an index of anxiety. […] In concrete, the sniffling behavior was observed under high light level and unfamiliar condition in the opened space. The both groups of animals are videotaped and sniffing behaviors of the animals against those of the partner was recorded (FIG. 7).
In FIG. 7, the mean times (±SEM) of the sniffing behavior were shown. The investigation was performed on the four groups of (1) the control rats group (CON/VEH) with saline administration as a vehicle, (2) the EGF administrated/saline injected group (EGF/VEH, n=10), (3) the EGF administered/clozapin injected group (EGF/CLOZ, n=10) and (4) the EGF administered/haloperidol injected group (EGF/HAL, n=6). The EGF administrated rats were pretreated by clozapine or haloperidol for three weeks and the test was performed after 48 hours of the final injection on each group. The asterisk marks indicate significant difference as compared with the CON/VEH group (** p<0.01). […] Moreover, the reduced sniffing behavior in the EGF adinistrated group recovered by injection of clozapine (EGF/CLOZ). Meanwhile, halopelidol was not effective to recover the sniffing behavior (EGF/HAL).

SD rats [2] = experiment: Prepulse inhibition (PPI) of acoustic startle response; conditions: for prepulse inhibition of EGF administered group under clozapine (EGF CZP) vs cytochrome-C group (Cont CZP): peritoneal, everyday from postnatal day 21; for effect on prepulse inhibition in EGF administered rats: administration for one week, test 23 hours after the final administration, haloperidol 0.3 mg/kg peritoneal (FIG. 4A); for prepulse inhibition, EGF administrated group vs cytochrome-C administered group: EGF 1.75 mg/kg s.c. five times P2-P10, p<0.05
Text: As the method used to evaluate the sensorimotor and behavioral abnormalities, behavioristic measurements such as prepulse inhibition of startle response, latent inhibition, social interaction, motor activity of the animal, can be mentioned. The prepulse inhibition of startle response is a test to evaluate the ability of perception-motor activity, using the startle response as an index and the startle response can be evaluated in human being and animal in common. In this test, evaluation of attention deficit and abnormality in information processing in brain can be achieved scientifically and objectively. These are considered to be the main factors involved in schizophrenic pathology. […] This test is carried out by measurement of such reaction. Such decrease caused by the prepulse is called “prepulse inhibition”.
(§1) SD rats (Nippon SLC) from postnatal day 2 were used as the test animals. Human recombinant epidermal growth factor (EGF; Higeta Shoyu) and cytochrome-C (Sigma) were dissolved in physiological saline at 70 μL/mL. From postnatal day 2, 25 μL of the solution per 1 g of the body weights of rats (each 1.75 mg/kg) was subcutaneously administered to the rat at the nape of the neck every other day. This operation was repeated five times until postnatal day 10. From postnatal day 21, the startle response and the prepulse inhibition were measured in a startled chamber (San diego Instruments). That is, acoustic stimulus was used as the sensory stimulation to induce startle response. As a prepulse, acoustic stimuli at the intensity 5 to 15 db above the environmental noise (background noise) was given. After 100 milliseconds, a pulse stimuli at the intensity of 120 db was given. The extent of the response obtained under combination of prepulse and 120 db was divided by that obtained under 120 db alone (%) to obtain response ratio. The response ratio was subtracted from 100 and it was designated prepulse inhibition (PPI). The calculation formula used to calculate the prepulse inhibition (PPI) is shown below. [formula]
The effect of 8-Chloro-11-(4-methyl-1-piperazinyl)-5H-dibenzo[b,e][1,4]-diazepine (clozapine: Sigma-Aldrich Fine Chemical Co.Ltd.), recognized to be a therapeutic agent for schizophrenia of human beings, was evaluated on the present model animal to evaluate the adequacy of this model. To the human recombinant EGF administered group and the control group (cytochrome-C administered), clozapine was peritoneally administrated everyday. This administration was performed from postnatal day 21 and chronic abnormality of prepulse inhibition firstly occurs around this period. The prepulse inhibition (PPI) was measured at the postnatal days 30 (P30), 33 (P33) and 37 (P37) (FIG. 3). The result at postnatal day 30 (P30) is shown in FIG. 3A, the result at postnatal day 33 (P33) is shown in FIG. 3B, and the result at postnatal day 37 (P37) is shown in FIG. 3C, respectively.
Moreover, the effect of 4-(4-[p-Chlorophenyl]-4-hydroxypiperidino)-4′-fluorobutyrophenone (Haloperidol: Sigma-Aldrich Fine Chemical Co.Ltd.) was also evaluated. Haloperidol was peritoneally administrated at a dose of 0.3 mg/kg. In FIG. 4, investigation was performed on the four groups of: (1) the control rats group (CON/VEH) with saline administration (as a vehicle), (2) the EGF administrated/saline injected group (EGF/VEH, n=10), (3) the EGF administered/clozapin injected group (EGF/CLP, n=10) and (4) the EGF administered/haloperidol injected group (EGF/HPD, n=6). The administration of saline, clozapine and haloperidol continued for one week. Twenty-three hours after the final administration, the test was performed on the rats of the respective group.

SD rats [3] = experiment: Motor activity: line crossing (horizonal activity) and rearing (vertical activity); conditions: for effect on vertical activity of the EGF rat groups: chronic administration for three weeks, tested 48 hours after the final administration, p<0.05 vs EGF/VEH
Experimental: The locomotor activities of the animals were measured at postnatal days 24 and 52. At postnatal day 24, it was measured using automated Activity Monitor (Neuro Science). At postnatal day 53, using a box having the size of 51×51×80 cm with lines of every 17 cms, the number of line crossing (horizonal activity) and the number of learing counts (vertical activity) within 10 minutes were measured.
The mean numbers (±SEM) of horizonal activity (Line Cross) and vertical activity (Rearing) at postnatal days 24 (P24) and 52 (P52) are shown in FIG. 5. FIG. 5A is the result obtained at postnatal day 24 (n=15, 8 males and 7 females) and FIG. 5B is the result obtained at postnatal day 52 (n=10, 5 males and 5 females). In FIG. 5, the left vertical axis indicates the number of the horizonal activity, while the right vertical axis indicates the number of the vertical activity. The left columns indicate the number of line crossing and the right columns indicate the number of learing counts, respectively. Moreover, the white columns indicate the control group (CON) and the black columns indicate the epidermal EGF administrated group, respectively.
The effect of anti-psychotic medicine on motor activity was also investigated using rats of postnatal day 52. The results investigated on four groups are shown in FIG. 6, namely 1) the control rats group (CON/VEH) with saline administration as a vehicle, (2) the EGF administrated/saline injected group (EGF/VEH, n=10), (3) the EGF administered/clozapin injected group (EGF/CLP, n=10) and (4) the EGF administered/haloperidol injected group (EGF/HAL, n=6). The same numbers of male and female are used in each of the groups. Saline, haloperidol and clozapine were administrated for three weeks, and each group was tested 48 hours after the final administration. Moreover, the asterisk mark (*) and the sharp mark (#) indicate significant difference as compared with the CON/VEH group and EGF/VEH group, respectively (* p<0.05, #p<0.05). […] Meanwhile, administration of these medicines was not effective on the horizonal activity.

SD rats [4] = experiment: Active avoidance response in shuttle box (learning ability)
Experimental: Furthermore, the learning ability was investigated by active avoidance response. The active avoidance test was performed in a shuttle box, using rats of postnatal day 51-60 (10 trials/day). The conditioning stimulus (CS) adopted here was a stimuli by noise of 80 dB tone and room light for 5 s. When the CS was on, the test animals had to cross the other side of the shuttle box apparatus (avoidance response) in order to turn it off and avoid the appearance of the unconditioned stimulus (US) described below. As the US, an electric shock by conducting 0.6-mA intensity of constant current for 10 s was utilized. Moreover, the test animals were investigated whether they are capable of avoiding the electrical shock by learning.
In FIG. 8, the percentages (±SEM) of the avoidance response are shown. In FIG. 8, the open circle symbols indicate cytochrome-c treated control group (CON: n=10), and the closed triangle symbols indicate EGF-treated group (EGF: n=10), respectively. […] There was also no difference between these two groups in the latency of response or the number of crossings between the two sides of the shuttle box.

SD rats [5] = experiment: Startle response to acoustic stimuli of 120 db; conditions: % in comparison with CON/VEH group (FIG. 4B)
Experimental: as §1, with “The response ratio was subtracted from 100 and it was designated prepulse inhibition (PPI). The calculation formula used to calculate the prepulse inhibition (PPI) is shown below. [formula]” left out
The results of the prepulse inhibition (FIG. 2A) and the startle response (FIG. 2B) analyzed in accordance to postnatal days are shown in FIG. 2. […]
Moreover, the effect of 4-(4-[p-Chlorophenyl]-4-hydroxypiperidino)-4′-fluorobutyrophenone (Haloperidol: Sigma-Aldrich Fine Chemical Co.Ltd.) was also evaluated. […]

[6] = postnatal day 51-60, n=10 per group

Compound | effect on reduced sniffing behavior in the EGF administrated group (SD rats [1]) | prepulse inhibition of EGF administered group under clozapine (EGF CZP) vs cytochrome-C group (Cont CZP) (SD rats [2]; postnatal day 30, 9th day of clozapine treatment) | prepulse inhibition of EGF administered group under clozapine (EGF CZP) vs cytochrome-C group (Cont CZP) (SD rats [2]; postnatal day 33) | prepulse inhibition of EGF administered group under clozapine (EGF CZP) vs cytochrome-C group (Cont CZP) (SD rats [2]; postnatal day 37) | effect on prepulse inhibition in EGF administered rats (SD rats [2]; prepulse 75 db) | effect on vertical activity of the EGF rat groups (SD rats [3]; postnatal day 52) | sniffing behavior against the unfamiliar partner, EGF/VEH vs control rats (SD rats [1]; high light level, unfamiliar condition, p<0.01) | learning ability of the EGF-treated rats (SD rats [4]; adult phase (postnatal day 51-60)) | ability to escape from the electric shock, EGF-treated group vs cytochrome-c control group (SD rats [4]; postnatal day 51-60, 10 trials/day, n=10 per group) | latency of response, EGF-treated group vs control group (SD rats [4]; [6]) | number of crossings between the two sides of the shuttle box, EGF-treated group vs control group (SD rats [4]; [6]) | startle response against acoustic stimuli of 120 db, EGF administered groups vs CON/VEH group (SD rats [5]) | prepulse inhibition, EGF administrated group vs cytochrome-C administered group (SD rats [2]; postnatal day 30, prepulse intensities 80 db and 85 db) | prepulse inhibition, EGF administrated group vs cytochrome-C administered group (SD rats [2]; postnatal day 33, prepulse intensities 80 db and 85 db) | prepulse inhibition, EGF administrated group vs cytochrome-C administered group (SD rats [2]; postnatal day 37, prepulse intensities 75 db, 80 db and 85 db) | prepulse inhibition and startle response in accordance to postnatal days, EGF group vs cytochrome-C control group (SD rats [2]; prepulse 75 db, postnatal days 21, 28, 30, 37, 46, 51, 60 and 90, n=10 per group (FIG. 2)) | number of horizonal activity (line cross), EGF group vs cytochrome-C group (CON) (SD rats [3]; postnatal day 24, n=15) | number of vertical activity (rearing), EGF group vs cytochrome-C group (CON) (SD rats [3]; postnatal day 24, n=15) | number of vertical activity (rearing), EGF group vs cytochrome-C group (SD rats [3]; postnatal day 52, n=10, counts within 10 minutes)
CN1CCN(C2=Nc3cc(Cl)ccc3Nc3ccccc32)CC1 [clozapine, 8-Chloro-11-(4-methyl-1-piperazinyl)-5H-dibenzo[b,e][1,4]-diazepine] | recovered | significant abnormality in the prepulse inhibition remained | significant difference in prepulse inhibition of the EGF administered group (EGF CZP) disappeared | significant difference in prepulse inhibition of the EGF administered group (EGF CZP) disappeared | significant improvement in prepulse inhibition | decreased significantly | – | – | – | – | – | – | – | – | – | – | – | – | –
O=C(CCCN1CCC(O)(c2ccc(Cl)cc2)CC1)c1ccc(F)cc1 [haloperidol, 4-(4-[p-Chlorophenyl]-4-hydroxypiperidino)-4′-fluorobutyrophenone] | not effective | – | – | – | such effect was not observed | decreased significantly | – | – | – | – | – | – | – | – | – | – | – | – | –
EGF: Human recombinant epidermal growth factor (Higeta Shoyu), protein factor administered to juvenile rats to prepare the schizophrenic model animal (NSDSECPLSHDGYCLHDGVCMYIEALDKYACNCVVGYIGERCQYRDLKWWELR; Epidermal growth factor; UniProt P01133 971-1023, looked up) | – | – | – | – | – | – | reduced significantly | appeared to be normal | no difference | no difference | no difference | significant stronger | significant decrease | significant decrease | significant decrease | significant difference was recognized after postnatal day 28 | no significant difference | no significant difference | significant difference was observed

Reference: US20030056232A1, “Animal showing schizophrenia-like abnormality in cognitive behaviors and method of constructing the same” (priority 2000, published 2003)
